Results from article PMC10337664 (Journal of Chemical Information and Modeling, 2023).

Target: DCAF1 (DDB1-Cul4 associated factor 1), WDR domain (Homo sapiens, UniProt Q9Y4B6)
Test: […] Å cocrystal structure
Format: binding

Chain of DCAF1 (DDB1-Cul4 associated factor 1), WDR domain (Q9Y4B6 1038-1400): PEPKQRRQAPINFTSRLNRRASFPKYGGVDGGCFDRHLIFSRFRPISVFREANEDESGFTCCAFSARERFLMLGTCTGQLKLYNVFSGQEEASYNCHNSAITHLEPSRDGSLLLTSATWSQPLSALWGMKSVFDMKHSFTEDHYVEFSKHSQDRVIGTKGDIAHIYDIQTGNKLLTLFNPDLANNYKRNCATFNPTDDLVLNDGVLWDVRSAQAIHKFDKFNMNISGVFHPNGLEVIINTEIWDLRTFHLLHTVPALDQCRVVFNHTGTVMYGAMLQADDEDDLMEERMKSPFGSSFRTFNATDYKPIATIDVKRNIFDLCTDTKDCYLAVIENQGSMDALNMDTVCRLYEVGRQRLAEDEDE

Kd: ~70 µM
SMILES: Fc1cccc(N2CCCC(Nc3cc(N4CCOCC4)ncn3)C2)c1 (stereo not shown) [CYCA-117-70]
